Source: patent US20100331297A1, “MODULATION OF PROTEIN TRAFFICKING” (FOLDRX PHARMACEUTICALS, INC., priority 2007, published 2010)
pEC50: −log10 of the molar value.

Columns and labels:
ΔF508 CFTR [1] = molecular target: T1, ΔF508 CFTR (Homo sapiens, UniProt P13569, DEL508-508); experiment: Potentiator activity, YFP halide (iodide) quenching assay in FRT cells expressing ΔF508 CFTR, 27° C. pre-incubation; assay type: cell-based; set-up: expressed in transfected cells; host or cells: Fischer rat thyroid (FRT) cells; Potentiator activity compared to the DMSO control (no EC50 obtained): scale not given here; conditions: for pEC50: FRT cells ΔF508 CFTR/YFP, 24 hours at 27° C., compound with forskolin 30 min
Procedure: Fisher rat thyroid (FRT) cells stably expressing ΔF508 CFTR and a halide-sensitive variant of yellow fluorescent protein (YFP) were seeded into microtiter plates and allowed to grow for 24 hours at 37° C. and 5% CO2, as described above. The medium was replaced with fresh medium and the cells were incubated for a further 24 hours at 27° C. and 5% CO2 to increase the level of mutant CFTR at the cell surface.
Compounds in DMSO solution were pre-diluted into phosphate-buffered saline solution (PBS) containing forskolin. Activity of CFTR was assayed by removing the medium, washing the cell monolayer with PBS, and then applying the compounds diluted in PBS containing forskolin. After 30 min of incubation at 37° C., the plates were placed in a fluorescence plate reader equipped with a reagent injector. After measuring an initial fluorescence value, iodide-containing buffer was injected and the decrease in fluorescence was followed at excitation and emission wavelengths of 485 and 530 nm, respectively.
Potentiator activity was calculated as follows. Normalized endpoint fluorescence was calculated by dividing the endpoint fluorescence after iodide injection by the initial fluorescence reading and multiplication by 100. Potentiator EC50 values were calculated by the same method as corrector EC50 values.

ΔF508 CFTR [2] = molecular target: T1, ΔF508 CFTR; experiment: Corrector activity, YFP halide (iodide) quenching assay in FRT cells expressing ΔF508 CFTR; assay type: cell-based; set-up: expressed in transfected cells; host or cells: Fischer rat thyroid (FRT) cells; conditions: FRT cells ΔF508 CFTR/YFP, 24 hours with compound at 37° C., forskolin and genistein; read-out: Corrector EC50
In short: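 FRT cells co-expressing ΔF508 CFTR and halide-sensitive YFP were incubated 24 h at 37° C with compounds, then stimulated 30 min at 37° C in PBS with forskolin and genistein. Endpoint fluorescence after iodide injection was normalized to initial reading; EC50 from 4-parameter fit with bottom constrained to DMSO control.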

T1 sequence (P13569 with tags, fused parts or gaps DEL508-508): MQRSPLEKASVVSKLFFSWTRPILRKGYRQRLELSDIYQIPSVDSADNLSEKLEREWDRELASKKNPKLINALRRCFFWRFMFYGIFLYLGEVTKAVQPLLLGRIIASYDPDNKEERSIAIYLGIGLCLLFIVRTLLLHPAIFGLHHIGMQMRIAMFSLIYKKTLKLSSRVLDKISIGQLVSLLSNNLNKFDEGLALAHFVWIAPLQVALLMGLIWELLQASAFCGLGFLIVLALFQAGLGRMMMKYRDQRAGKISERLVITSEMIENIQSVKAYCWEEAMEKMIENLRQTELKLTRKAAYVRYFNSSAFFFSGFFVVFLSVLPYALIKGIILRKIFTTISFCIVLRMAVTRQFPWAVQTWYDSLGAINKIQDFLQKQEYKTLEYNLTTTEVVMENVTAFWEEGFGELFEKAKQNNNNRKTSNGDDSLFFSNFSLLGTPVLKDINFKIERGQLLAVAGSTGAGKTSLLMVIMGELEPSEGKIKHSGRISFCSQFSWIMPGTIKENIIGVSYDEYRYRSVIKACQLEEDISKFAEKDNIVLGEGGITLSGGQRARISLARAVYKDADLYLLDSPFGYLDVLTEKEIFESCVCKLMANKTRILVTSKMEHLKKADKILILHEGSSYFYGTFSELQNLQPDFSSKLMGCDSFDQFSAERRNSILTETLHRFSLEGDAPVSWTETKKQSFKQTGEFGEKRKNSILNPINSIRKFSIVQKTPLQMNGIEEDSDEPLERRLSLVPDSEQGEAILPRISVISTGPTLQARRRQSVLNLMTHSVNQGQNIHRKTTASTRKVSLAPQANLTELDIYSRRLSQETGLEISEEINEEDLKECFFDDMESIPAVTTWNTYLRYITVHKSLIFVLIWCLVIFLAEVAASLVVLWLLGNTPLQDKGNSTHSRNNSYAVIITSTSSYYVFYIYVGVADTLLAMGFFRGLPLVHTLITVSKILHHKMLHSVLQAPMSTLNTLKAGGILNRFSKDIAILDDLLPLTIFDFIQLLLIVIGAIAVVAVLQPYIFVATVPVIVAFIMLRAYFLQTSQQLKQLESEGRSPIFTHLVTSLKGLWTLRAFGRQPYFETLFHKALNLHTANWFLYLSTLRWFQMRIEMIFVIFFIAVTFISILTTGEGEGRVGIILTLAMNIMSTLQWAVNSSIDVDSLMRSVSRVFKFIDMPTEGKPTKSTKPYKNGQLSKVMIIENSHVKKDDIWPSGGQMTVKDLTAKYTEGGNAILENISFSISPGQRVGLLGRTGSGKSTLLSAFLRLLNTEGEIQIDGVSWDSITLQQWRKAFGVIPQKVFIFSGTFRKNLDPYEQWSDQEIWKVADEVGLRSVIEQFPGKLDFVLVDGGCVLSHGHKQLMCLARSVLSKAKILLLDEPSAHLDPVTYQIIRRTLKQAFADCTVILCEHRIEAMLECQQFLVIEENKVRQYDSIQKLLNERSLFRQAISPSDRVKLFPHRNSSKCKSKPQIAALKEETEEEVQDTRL

Row | SMILES | pEC50 (ΔF508 CFTR [1]) | pEC50 (ΔF508 CFTR [2]) | Potentiator activity compared to the DMSO control (no EC50 obtained) (ΔF508 CFTR [1]; at 12 μm)
1 | CCOC(=O)N1CC(n2nc(Sc3cccc(Cl)c3)c3c(N)ncnc32)C1 [Compound No. 345, 3-[4-Amino-3-(3-chloro-phenylsulfanyl)-pyrazolo[3,4-d]pyrimidin-1-yl]-azetidine-1-carboxylic acid ethyl ester] | 5.30 to 5.70 | < 4.82 | –
2 | CCNC(=O)N1CC(n2nc(Sc3cccc(Cl)c3)c3c(N)ncnc32)C1 [Compound No. 346, 3-[4-Amino-3-(3-chloro-phenylsulfanyl)-pyrazolo[3,4-d]pyrimidin-1-yl]-azetidine-1-carboxylic acid ethylamide] | < 4.82 | < 4.82 | –
3 | CN1CC[C@@H](n2nc(-c3ccc(Cl)cc3)c3c(N)ncnc32)C1 [Compound No. 356, 3-(4-Chloro-phenyl)-1-(1-methyl-pyrrolidin-3-yl)-1H-pyrazolo[3,4-d]pyrimidin-4-ylamine] | < 4.82 | > 5.70 | –
4 | CCn1nc(-c2ccc(Cl)cc2)c2c(N)ncnc21 [compound 67] | 5.30 to 5.70 | < 4.82 | –
5 | Cc1ccc(-c2nn(C(C)(C)C)c3ncnc(NC(=O)c4ccc(F)cc4)c23)cc1 [compound 94] | < 4.82 | 5.00 to 5.30 | –
6 | Cc1ccc(C(=O)Nc2ncnc3c2c(-c2ccc(C)cc2)nn3C(C)(C)C)cc1 [compound 95] | 5.30 to 5.70 | < 4.82 | –
7 | Cc1ccc(-c2nn(C(C)(C)C)c3ncnc(NC(=O)c4ccccc4Cl)c23)cc1 [compound 99] | 5.30 to 5.70 | < 4.82 | –
8 | Cc1cccc(-c2nn(C(C)(C)C)c3ncnc(N)c23)c1 [compound 104] | 5.30 to 5.70 | < 4.82 | –
9 | CC(=O)Nc1ncnc2c1c(-c1ccc(F)cc1)nn2C(C)(C)C [compound 118, N-[1-tert-Butyl-3-(4-fluoro-phenyl)-1H-pyrazolo[3,4-d]pyrimidin-4-yl]-acetamide] | < 4.82 | < 4.82 | –
10 | CC(C)(C)n1nc(-c2ccc3c(c2)OCO3)c2c(N)ncnc21 [compound 131] | 5.30 to 5.70 | < 4.82 | –
11 | CC(C)(C)n1nc(-c2cccc(Oc3ccccc3)c2)c2c(N)ncnc21 [compound 132] | < 4.82 | < 4.82 | –
12 | Cc1cccc(Oc2nn(C(C)(C)C)c3ncnc(N)c23)c1C [compound 167] | > 5.70 | < 4.82 | –
13 | CC(C)(C)n1nc(Oc2ccc(Cl)cc2)c2c(N)ncnc21 [compound 168] | > 5.70 | < 4.82 | –
14 | CCn1nc(-c2ccc(N=[N+]=[N-])cc2)c2c(N)ncnc21 [compound 170] | < 4.82 | 5.00 to 5.30 | –
15 | CC(C)(C)n1nc(Sc2ccccc2)c2c(N)ncnc21 [compound 172] | > 5.70 | < 4.82 | –
16 | CC(C)(C)n1nc([S+]([O-])c2ccccc2)c2c(N)ncnc21 (stereo not drawn) [compound 173, 3-benzenesulfinyl-1-tert-butyl-1H-pyrazolo[3,4-d]pyrimidin-4-ylamine] | < 4.82 | < 4.82 | –
17 | CC(C)(C)n1nc(Oc2ccc(F)c(F)c2)c2c(N)ncnc21 [compound 174] | > 5.70 | < 4.82 | –
18 | CC(C)(C)n1nc(Oc2ccc(F)c(Cl)c2)c2c(N)ncnc21 [compound 176] | > 5.70 | < 4.82 | –
19 | Cc1ccc(Oc2nn(C(C)(C)C)c3ncnc(N)c23)cc1C [compound 177] | > 5.70 | < 4.82 | –
20 | CC(C)(C)n1nc(Oc2cccc(F)c2F)c2c(N)ncnc21 [compound 178] | 5.30 to 5.70 | < 4.82 | –
21 | Cc1cc(Oc2nn(C(C)(C)C)c3ncnc(N)c23)ccc1F [compound 179] | > 5.70 | < 4.82 | –
22 | Cc1cc(C)cc(Oc2nn(C(C)(C)C)c3ncnc(N)c23)c1 [compound 180] | > 5.70 | 5.00 to 5.30 | –
23 | CC(C)(C)n1nc(Oc2cccnc2)c2c(N)ncnc21 [compound 183] | < 4.82 | < 4.82 | –
24 | Cc1ccccc1Oc1nn(C(C)(C)C)c2ncnc(N)c12 [compound 185] | > 5.70 | < 4.82 | –

Row | SMILES | pEC50 (ΔF508 CFTR [1]) | pEC50 (ΔF508 CFTR [2]) | Potentiator activity compared to the DMSO control (no EC50 obtained) (ΔF508 CFTR [1]; at 12 μm)
25 | Nc1ncnc2c1c(-c1ccc(Cl)cc1)nn2C(=O)Oc1ccccc1 [compound 187] | < 4.82 | 5.00 to 5.30 | –
26 | Nc1ncnc2c1c(-c1ccc(Cl)cc1)nn2C(=O)OCc1ccccc1 [compound 188] | < 4.82 | 5.00 to 5.30 | –
27 | CC(C)(C)n1nc(Oc2cccc(Oc3ccccc3)c2)c2c(N)ncnc21 [compound 189] | > 5.70 | < 4.82 | –
28 | CC(C)(C)n1nc(Oc2cccc(-c3ccccc3)c2)c2c(N)ncnc21 [compound 190] | < 4.82 | 5.00 to 5.30 | –
29 | CC(C)(C)n1nc(S(=O)(=O)c2ccccc2)c2c(N)ncnc21 [compound 191, 3-Benzenesulfonyl-1-tert-butyl-1H-pyrazolo[3,4-d]pyrimidin-4-ylamine] | 5.00 to 5.30 | < 4.82 | –
30 | CC(C)(C)n1nc(Oc2cccc(OC(F)(F)F)c2)c2c(N)ncnc21 [compound 194] | < 4.82 | < 4.82 | –
31 | CC(C)(C)n1nc(Oc2cccc3cccnc23)c2c(N)ncnc21 [compound 195] | < 4.82 | 5.00 to 5.30 | –
32 | CC(C)(C)n1nc(Oc2ccc(F)cc2)c2c(N)ncnc21 [compound 196] | > 5.70 | 5.00 to 5.30 | –
33 | CC(C)(C)n1nc(Oc2ccccc2F)c2c(N)ncnc21 [compound 197] | > 5.70 | 5.00 to 5.30 | –
34 | CC(C)(C)n1nc(Oc2cccc3ccccc23)c2c(N)ncnc21 [compound 198, 1-tert-Butyl-3-(naphthalen-1-yloxy)-1H-pyrazolo[3,4-d]pyrimidin-4-ylamine] | – | < 4.82 | # (at 12 μm)
35 | CC(C)(C)n1nc(Oc2cccc(F)c2)c2c(N)ncnc21 [compound 200] | > 5.70 | < 4.82 | –
36 | CC(C)(C)n1nc(Oc2cccc(C#N)c2)c2c(N)ncnc21 [compound 201] | 5.00 to 5.30 | 5.00 to 5.30 | –
37 | Nc1ncnc2c1c(-c1ccc(Cl)cc1)nn2CC(F)F [compound 202] | < 4.82 | 5.00 to 5.30 | –
38 | CC(C)(C)n1nc(Oc2ccc(C#N)cc2)c2c(N)ncnc21 [compound 205] | > 5.70 | < 4.82 | –
39 | Cc1ccc(F)c(Oc2nn(C(C)(C)C)c3ncnc(N)c23)c1 [compound 206] | < 4.82 | < 4.82 | –
40 | CCn1nc(Sc2cccc3ccccc23)c2c(N)ncnc21 [compound 207] | > 5.70 | < 4.82 | –
41 | CCn1nc(Sc2ccc(F)cc2)c2c(N)ncnc21 [compound 208] | > 5.70 | < 4.82 | –
42 | CC(C)(C)n1nc(Oc2cccc3c2CCCC3)c2c(N)ncnc21 [compound 209] | < 4.82 | < 4.82 | –
43 | CC(C)(C)n1nc(Oc2ccc3c(c2)CCC3)c2c(N)ncnc21 [compound 210] | > 5.70 | 5.00 to 5.30 | –
44 | CCn1nc(S(=O)(=O)c2cccc3ccccc23)c2c(N)ncnc21 [compound 212] | < 4.82 | < 4.82 | –
45 | CCn1nc(Sc2ccc(Cl)cc2)c2c(N)ncnc21 [compound 216] | > 5.70 | < 4.82 | –
46 | CCn1nc(Sc2ccccc2F)c2c(N)ncnc21 [compound 217] | < 4.82 | < 4.82 | –
47 | CCn1nc(Sc2cccc(C)c2)c2c(N)ncnc21 [compound 218] | > 5.70 | 5.00 to 5.30 | –
48 | CCn1nc([S+]([O-])c2cccc(C)c2)c2c(N)ncnc21 (stereo not drawn) [compound 224] | < 4.82 | < 4.82 | –
